Where “and” joins values, the source holds several entries; their conditions need not be identical. Identical values can stand only once. Like-named read-outs stand apart in the source and are kept apart here.
How the values were obtained:
Assay in all cases: Chemosensitivity, 96 h continuous exposure, MTT assay
Format in all cases: cell-based, human
HCT116 p53+/+ = system: HCT116 p53+/+
Excerpt: (§1) All cell lines were purchased from and maintained as monolayers as described by the American Type Culture Collection with the exception of the p53^+/+ and p53^−/− isogenic clones of HCT116 human colorectal adenocarcinoma cells which were a kind gift from Professor Bert Vogelstein[54]. GBM1 cells were established from a primary GBM tumour by Heiko Wurdak and colleagues[32],[33]. Non-cancerous adult brain neural progenitor (NP1) cells were derived from a patient undergoing surgery to treat epilepsy[32],[33]. Cell culture and growth media for NP1 and GBM1 cells were as described[32],[33]. The response of cells following a continuous 96-h exposure to test compounds and platinates was determined using the MTT assay. Potency was recorded as the IC50 and the selectivity index (SI) was defined as the ratio of IC50 values for non-cancer to cancer cell lines with values >1 representing selectivity for cancer cells as opposed to non-cancer cells.
(§2) All cell lines used were maintained at low passage in antibiotic-free media. HT29, DLD-1, HCT116 p53^+/+ and HCT116 p53^−/− are all colorectal adenocarcinoma cell lines derived from different individuals and harbour different combinations of oncogenic lesions (except for the HCT116 isogenic cancer cell clones that are genetically identical except for p53 status). PSN-1, BxPC-3 and MiaPaCa2 are pancreatic carcinoma cell lines and A549 and H460 are lung carcinoma cell lines. HT29, DLD-1, PSN-1, BxPC-3, A549 and H460 cell lines were cultured in RPMI-1640 growth media (Sigma) containing 2 mM L-glutamine, 1 mM sodium pyruvate and 10% foetal bovine serum (FBS). HCT116 (p53^+/+ and p53^−/−) and MiaPaCa2 cell lines were cultured in Dulbecco’s Modified Eagle’s Medium (Sigma), 2 mM L-glutamine and 10% FBS. The ARPE-19 retinal epithelial non-cancer cell line was cultured in DMEM/F12 media (Gibco), 2 mM L-glutamine, 1 mM sodium pyruvate and 10% FBS. The MCF10A non-cancerous human breast epithelial cell line was cultured in Minimal Essential Media Eagle (Sigma), 2 mM L-glutamine, 1 mM sodium pyruvate, 10% FBS and 1x non-essential amino acids (NEAA). NP1 and GBM1 cells were cultured on plasticware coated with poly-L-ornithine (5 µg/ml) and laminin (2.4 µg/ml)[32],[33]. NP1 cells were grown in DMEM/F12 media (Gibco) supplemented with 5% FBS, 20 ng/ml hFGF, 20 ng/ml rhEGF, 0.5x B-27 supplement (Gibco), 0.5x N-2 supplement (Gibco) and 1x GLUTAMAX (Gibco). GBM1 cells were cultured in Neurobasal media (Gibco) supplemented with 40 ng/ml hFGF, 40 ng/ml rhEGF, 0.5x B-27 supplement (Gibco) and 0.5x N-2 supplement (Gibco).
(§3) [L2(Metal)3]^6+ and all the other self-assembling complexes were freshly formed by adding DMSO to individual components and mixing together by pipetting. These were then further diluted in cell culture media such that the final DMSO concentration that cells were exposed to was 0.2% (vehicle control). Cisplatin, oxaliplatin and carboplatin were dissolved in phosphate buffered saline. Cell lines were seeded into 96 well plates at 2 × 10^3 cells per well and incubated overnight at 37 °C. GBM1 cancer stem-like cells were seeded at 3 × 10^3 cells per well and NP1 neural progenitors were seeded at 1.5 × 10^3 cells per well. The following day, media was removed and replaced with fresh media containing test compounds at a range of concentrations. Cells were incubated with test compounds for a further 96 h after which the media was removed and replaced with fresh media (200 μl/well). MTT was added (20 μl at 5 mg/ml) and cells were incubated for a further 4 h. Media and MTT were removed and formazan crystals were dissolved in 150 μl of DMSO and the absorbance of the resulting solution determined at 540 nm. Dose response curves were constructed, and the concentration required to reduce cell growth by 50% (IC50) determined.

DLD-1 = system: DLD-1
Excerpt: as §1, §2, §3

HT-29 = system: HT-29
Excerpt: as §1, §2, §3

A549 = system: A549
Excerpt: as §1, §2, §3

PSN1 = system: PSN1
Excerpt: as §1, §2, §3

BxPC3 = system: BxPC3
Excerpt: as §1, §2, §3

HCT116 p53-/- = system: HCT116 p53-/-
Excerpt: as §1, §2, §3

## O=S(=O)([O-])[O-].[Cu+2].[Cu+2].[Cu+2].c1ccc(-c2csc(NCCN(CCNc3nc(-c4ccccn4)cs3)CCNc3nc(-c4ccccn4)cs3)n2)nc1.c1ccc(-c2csc(NCCN(CCNc3nc(-c4ccccn4)cs3)CCNc3nc(-c4ccccn4)cs3)n2)nc1 [[L2Cu3(SO4)]4+]
HCT116 p53+/+; HCT116 p53+/+, mean of replicates, read-out: Mean IC50
  IC50: 668 nM
HCT116 p53+/+; HCT116 p53+/+, read-out: Mean IC50 values
  IC50: 668 nM
HCT116 p53+/+; HCT116 p53+/+, single replicate, read-out: IC50 values for each replicate
  IC50: 643 nM and 713 nM and 647 nM
HCT116 p53+/+; IC50 ARPE-19 / IC50 HCT116 p53+/+
  Selectivity index (ARPE19): 180.10
HCT116 p53+/+; IC50 MCF10A / IC50 HCT116 p53+/+
  Selectivity index (MCF10A): 74.45
HCT116 p53+/+; ratio of IC50, HCT116 p53+/+
  Relative potency (+ anion to no anion), Ratio + anion:no anion: 1.35
HCT116 p53+/+; ratio of SI (ARPE-19), HCT116 p53+/+
  Selectivity indices relative to ARPE-19, Ratio + anion:no anion: 1.697
HCT116 p53+/+; ratio of SI (MCF 10A), HCT116 p53+/+
  Selectivity indices relative to MCF10A, Ratio + anion:no anion: 0.765
DLD-1; DLD-1, mean of replicates, read-out: Mean IC50
  IC50: 650 nM
DLD-1; DLD-1, read-out: Mean IC50 values
  IC50: 650 nM
DLD-1; IC50 ARPE-19 / IC50 DLD-1
  Selectivity index (ARPE19): 185.09
DLD-1; IC50 MCF10A / IC50 DLD-1
  Selectivity index (MCF10A): 76.51
DLD-1; ratio of IC50, DLD-1
  Relative potency (+ anion to no anion), Ratio + anion:no anion: 4.92
DLD-1; ratio of SI (ARPE-19), DLD-1
  Selectivity indices relative to ARPE-19, Ratio + anion:no anion: 0.464
DLD-1; ratio of SI (MCF 10A), DLD-1
  Selectivity indices relative to MCF10A, Ratio + anion:no anion: 0.209
HT-29; HT29, mean of replicates, read-out: Mean IC50
  IC50: 188 nM
HT-29; HT29, read-out: Mean IC50 values
  IC50: 188 nM
HT-29; HT-29, single replicate, read-out: IC50 values for each replicate
  IC50: 88 nM and 240 nM and 182 nM
HT-29; IC50 ARPE-19 / IC50 HT29
  Selectivity index (ARPE19): 639.95
HT-29; IC50 MCF10A / IC50 HT29
  Selectivity index (MCF10A): 264.53
HT-29; ratio of IC50, HT29
  Relative potency (+ anion to no anion), Ratio + anion:no anion: 0.88
HT-29; ratio of SI (ARPE-19), HT29
  Selectivity indices relative to ARPE-19, Ratio + anion:no anion: 2.602
HT-29; ratio of SI (MCF 10A), HT29
  Selectivity indices relative to MCF10A, Ratio + anion:no anion: 1.173
A549; A549, mean of replicates, read-out: Mean IC50
  IC50: 680 nM
A549; A549, read-out: Mean IC50 values
  IC50: 680 nM
A549; A549, single replicate, read-out: IC50 values for each replicate
  IC50: 747 nM and 620 nM and 667 nM and 685 nM
A549; IC50 ARPE-19 / IC50 A549
  Selectivity index (ARPE19): 176.93
A549; IC50 MCF10A / IC50 A549
  Selectivity index (MCF10A): 73.14
A549; ratio of IC50, A549
  Relative potency (+ anion to no anion), Ratio + anion:no anion: 2.92
A549; ratio of SI (ARPE-19), A549
  Selectivity indices relative to ARPE-19, Ratio + anion:no anion: 0.783
A549; ratio of SI (MCF 10A), A549
  Selectivity indices relative to MCF10A, Ratio + anion:no anion: 0.353
PSN1; IC50 ARPE-19 / IC50 PSN1
  Selectivity index (ARPE19): 246.54
PSN1; IC50 MCF10A / IC50 PSN1
  Selectivity index (MCF10A): 101.91
PSN1; PSN1, mean of replicates, read-out: Mean IC50
  IC50: 488 nM
PSN1; PSN1, read-out: Mean IC50 values
  IC50: 488 nM
PSN1; PSN1, single replicate, read-out: IC50 values for each replicate
  IC50: 449 nM and 779 nM and 235 nM
PSN1; ratio of IC50, PSN1
  Relative potency (+ anion to no anion), Ratio + anion:no anion: 0.0756
PSN1; ratio of SI (ARPE-19), PSN1
  Selectivity indices relative to ARPE-19, Ratio + anion:no anion: 30.213
PSN1; ratio of SI (MCF 10A), PSN1
  Selectivity indices relative to MCF10A, Ratio + anion:no anion: 13.624
BxPC3; BXPC3, mean of replicates, read-out: Mean IC50
  IC50: 491 nM
BxPC3; BXPC3, read-out: Mean IC50 values
  IC50: 491 nM
BxPC3; BXPC3, single replicate, read-out: IC50 values for each replicate
  IC50: 544 nM and 586 nM and 260 nM and 478 nM and 588 nM
BxPC3; IC50 ARPE-19 / IC50 BXPC3
  Selectivity index (ARPE19): 245.03
BxPC3; IC50 MCF10A / IC50 BXPC3
  Selectivity index (MCF10A): 101.29
BxPC3; ratio of IC50, BXPC3
  Relative potency (+ anion to no anion), Ratio + anion:no anion: 1.68
BxPC3; ratio of SI (ARPE-19), BXPC3
  Selectivity indices relative to ARPE-19, Ratio + anion:no anion: 1.364
BxPC3; ratio of SI (MCF 10A), BXPC3
  Selectivity indices relative to MCF10A, Ratio + anion:no anion: 0.615
HCT116 p53-/-; HCT116 p53-/-, read-out: Mean IC50 values
  IC50: 78 nM
HCT116 p53-/-; HCT116 p53-/-, single replicate, read-out: IC50 values for each replicate
  IC50: 78 nM and 77 nM and 79 nM
HCT116 p53-/-; IC50 ARPE-19 / IC50 HCT116 p53-/-
  Selectivity index (ARPE19): 1542.44
HCT116 p53-/-; IC50 MCF10A / IC50 HCT116 p53-/-
  Selectivity index (MCF10A): 637.59
HCT116 p53-/-; ratio of IC50, HCT116 p53-/-
  Relative potency (+ anion to no anion), Ratio + anion:no anion: 0.57
HCT116 p53-/-; ratio of SI (ARPE-19), HCT116 p53-/-
  Selectivity indices relative to ARPE-19, Ratio + anion:no anion: 4.015
HCT116 p53-/-; ratio of SI (MCF 10A), HCT116 p53-/-
  Selectivity indices relative to MCF10A, Ratio + anion:no anion: 1.810

Reference: paper PMC8222254, “Self-assembly of an anion receptor with metal-dependent kinase inhibition and potent in vitro anti-cancer properties” (Nature Communications, 2021)
